Data on eight compounds can be found in paper PMC12837517, “Valorization of Onion-Processing Waste: Digestive Fate, Bioavailability, and Cellular Antioxidant Properties of Red and Yellow Peels Polyphenols” (Antioxidants, 2025).

Read-outs that look alike come from different tables or passages of the source. Marks after values point to notes of the source that are not given here. A value given as a limit tells only on which side of the number the result lay.

Series [1] relates to Caco-2 cell monolayer. As to the kind of experiment: Transport of polyphenols across differentiated Caco-2 monolayers (apical stability, basolateral bioavailability, Papp).
Protocol: (§1) To determine how effectively specific polyphenols might be absorbed through the human intestine, an in vitro assay was conducted utilizing the Caco-2 cell line, which, when fully differentiated, mimics the human intestinal barrier, as described by D’Antuono et al. [16]. […] The cells were maintained for 21 days in a standard culture condition to ensure complete differentiation into a tight monolayer. The medium in both the apical and basolateral compartments was refreshed twice weekly.
(§2) The development of a robust epithelial barrier was confirmed by measuring the Transepithelial Electrical Resistance (TEER) using a volt–ohm meter. […] Prior to the experiment, the monolayers were rinsed with a pH 5.5 PBS. The apical chamber then received 2 mL of phenol red-free DMEM containing hydroalcoholic extracts from red and yellow onion peels, adjusted to a final total polyphenol concentration of 60 μg/mL and 30 μg/mL, respectively. The system was incubated at 37 °C, and samples from both the apical and basolateral chambers were collected for 30, 60, 90, and 120 min to track the time-dependent flux of the compounds. These samples were flash-frozen at −80 °C pending High-Performance Liquid Chromatography (HPLC) analysis.
(§3) For the assessment of polyphenol accumulation within the Caco-2 cells, the monolayers were first subjected to a sequential wash with PBS pH 5.5, and then with a solution of 0.1% fatty acid-free bovine albumin in PBS pH 5.5. The cells were then mechanically harvested into 1 mL of cold PBS pH 5.5 and stored at −80 °C under a nitrogen atmosphere. […] Polyphenols were chemically isolated from the sonicated Caco-2 cells and the basolateral solutions via a liquid–liquid extraction technique, employing ethyl acetate EtOAc stabilized with 0.01% butylated hydroxytoluene (BHT). This extraction was repeated three times, and the pooled organic layers were dried under vacuum before being dissolved in 200 μL mobile phase for HPLC analysis.
The subject of series [2] is Caco-2 cell monolayer.
Protocol: as §1, §2, §3
Series [3] can be described thus: Two-step in vitro gastrointestinal digestion, digestive stability of polyphenols. Type of series: in vitro ADME. To be noted: for Digestive Stability (%) Gastric %: after gastric phase (pepsin, pH 2.5, 37 °C, 1 h); for Digestive Stability (%) Intestinal %: after small intestinal phase (pH 6.5, 37 °C, 2 h). As to the method: The digestive stability of polyphenols was assessed using a two-step in vitro gastrointestinal digestion model, as described by Cardinali et al.. Aliquots (3 mL) of aqueous onion peel extracts (500 μg/mL total polyphenols, determined by HPLC-DAD) were diluted with 4.5 mL of 0.9% NaCl at pH 7. The gastric phase was initiated with addition of 0.9 mL of porcine pepsin solution (40 mg/mL) in 0.1 N HCl and adjustment of pH to 2.5 ± 0.1 with 1 N HCl. Samples were incubated at 37 °C for 1 h. Following gastric digestion, the small intestinal phase was initiated by adjusting the pH of gastric digesta to 5.3 with 100 mM NaHCO3 and 1 N NaOH, followed by the addition of 2.7 mL of small intestinal enzyme solution (lipase 2 mg/mL, pancreatin 4 mg/mL, and bile 24 mg/mL in 100 mM NaHCO3). The final sample pH was adjusted to 6.5 ± 0.1 with 1 N NaOH, the volume was standardized to 15 mL with saline solution (0.9% NaCl), and the sample was incubated at 37 °C for 2 h. After both digestion steps (gastric and small intestinal), the samples were collected and centrifuged (10,000× g, 1 h, 4 °C), filtered (0.45 μm), and then analyzed by HPLC-DAD. Digestive stability (%) was calculated by comparing pre- and post-digestion polyphenol content.

The test system of the next series is Caco-2 cells. Description: Polyphenol accumulation within Caco-2 cells (uptake). Type of series: in vitro ADME, human.
Series [4] is described as follows: Transport of polyphenols across differentiated Caco-2 monolayers (apical stability, basolateral bioavailability, Papp). Particulars: human, Caco-2.
Protocol: as §1, §2, §3
Details of series [5]: method as in PMID 34388527. To be noted: at room temperature; cited from earlier work.
Setting [6] is: red onion peels “Rossa di Tropea” extract.
Where [7] appears, read: yellow onion peels “Recas” extract.
Setting [8] is: yellow onion peels extract, 30 min (maximum).
Setting [9] is: yellow onion peels extract, 30-120 min.
[10] abbreviates: yellow onion peels “Recas” extract, listed as quercetin aglycone.

Protocol for Caco-2 cells: as §1, §2, §3

In the case of `OC[C@H]1O[C@@H](Oc2cc3c(O)cc(O)cc3[o+]c2-c2ccc(O)c(O)c2)[C@H](O)[C@@H](O)[C@@H]1O` [Cyanidin 3-glucoside], the “Papp (apical-to-basolateral)” value in the series with Caco-2 cell monolayer [1] (red onion peels extract) was determined as 5.1 ×10⁻⁶ cm/s. Besides, in the series on Caco-2 cell monolayer [1] (red onion peels extract, 30-120 min), the “detection in basolateral compartment” value is “present in the basolateral side at 60 and 120 min”.
On to `O=c1c(O[C@@H]2O[C@H](CO)[C@@H](O)[C@H](O)[C@H]2O)c(-c2ccc(O[C@@H]3O[C@H](CO)[C@@H](O)[C@H](O)[C@H]3O)c(O)c2)oc2cc(O)cc(O)c12` [Quercetin 3,4′-diglucoside], for which the “Papp (apical-to-basolateral)” value in the series on Caco-2 cell monolayer [2] stood at 6.1 ×10⁻⁶ cm/s.
Regarding `O=c1c(O)c(-c2ccc(O[C@@H]3O[C@H](CO)[C@@H](O)[C@H](O)[C@H]3O)c(O)c2)oc2cc(O)cc(O)c12` [Spiraeoside, quercetin-4′-O-glucoside], in series [3] (setting [6]), the “Digestive Stability (%) Gastric %” value is given as 99.51 ± 3.50 ^a % and the “Digestive Stability (%) Intestinal %” value is reported as 39.97 ± 6.96 ^b %. Also, in series [3] (setting [7]), the “Digestive Stability (%) Gastric %” value is recorded as 81.11 ± 6.54 ^a % and the “Digestive Stability (%) Intestinal %” value is given as 36.76 ± 3.49 ^b %. The cellular accumulation in the series on Caco-2 cells (red onion peels extract, 90 min (maximum)) is reported as 0.142 ng/µg protein. In the series with Caco-2 cells (setting [8]), this compound yielded a cellular accumulation of 0.162 ng/µg protein. In series [4], the Papp A→B at 120 min, 30 µg/mL total polyphenols stood at 5.5 ×10⁻⁶ cm/s; the bioavailability at 90 min, 30 µg/mL total polyphenols was about 8%; the bioavailability at 120 min, 30 µg/mL total polyphenols was about 8%; the recovery at 30 min, 60 μg/mL total polyphenols was 78%. In series [4], this compound registered a recovery at 120 min, 60 μg/mL total polyphenols of 62%.
For the compound `O=C(O)c1ccc(O)c(O)c1` [Protocatechuic acid], in series [3] (in both onion varieties, phase not specified, read-out: recovery after digestion), the recovery was over 100%. Besides, in series [3] (setting [6]), the “Digestive Stability (%) Gastric %” value is over 100.00% and the “Digestive Stability (%) Intestinal %” value was over 100.00%. For the same compound, in series [3] (setting [7]), the “Digestive Stability (%) Gastric %” value is on record as 90.32 ± 4.41 ^b % and the “Digestive Stability (%) Intestinal %” value was >100.00 ^a %. In the series with Caco-2 cells (red onion peels extract, 30 min), this compound had a cellular accumulation of 0.013 ng/µg protein. In addition, in the series on Caco-2 cells (setting [8]), the cellular accumulation is listed as 0.050 ng/µg protein. Further, in the series on Caco-2 cell monolayer [1] (setting [9]), the “stability in apical culture medium over time” value is “consistent stability”. In series [4], the apical-to-basolateral permeability (Papp A→B) at 120 min, 30 µg/mL total polyphenols was 8.4 ×10⁻⁶ cm/s; the bioavailability at 90 min, 30 µg/mL total polyphenols stood at 6.8%; the bioavailability at 120 min, 30 µg/mL total polyphenols stood at 7.7%.
With `O=c1c(O)c(-c2ccc(O)c(O)c2)oc2cc(O)cc(O)c12` [Quercetin], in series [3] (setting [6]), the “Digestive Stability (%) Gastric %” value was 32.34 ± 3.97 ^a % and the “Digestive Stability (%) Intestinal %” value is given as 15.37 ± 2.55 ^b %. In series [3] (setting [7]), the “Digestive Stability (%) Gastric %” value is 3.44 ± 0.56 ^b % and the “Digestive Stability (%) Intestinal %” value is reported as 15.64 ± 0.96 ^a %. In addition, in series [3] (setting [10]), the “Digestive Stability (%) Gastric %” value is given as 3.44% and the “Digestive Stability (%) Intestinal %” value is given as 15.64%. Besides, the maximum cellular accumulation in the series with Caco-2 cells (red onion peels extract, time not stated) stood at 1.468 ng/µg protein. The “detection in basolateral compartment” value in the series with Caco-2 cell monolayer [1] (setting [9]) is listed as “not detected”. In addition, in series [4], the Papp A→B at 120 min, 60 µg/mL total polyphenols stood at 1.1 ×10⁻⁶ cm/s; the bioavailability at 60 min, 60 µg/mL total polyphenols was found to be 0.6%; the recovery at 30 min, 60 μg/mL total polyphenols turned out to be 38%; the recovery at 120 min, 60 μg/mL total polyphenols amounted to 7%.
Consider `COc1cc(-c2oc3cc(O)cc(O)c3c(=O)c2O)ccc1O` [isorhamnetin], for which the cellular accumulation in the series on Caco-2 cells (red onion peels extract, 120 min) worked out at 0.040 ng/µg protein.
With `O=C1c2c(O)cc(O)cc2OC(c2ccc(O)c(O)c2)C1O` (stereo not shown) [taxifolin], the solubility in series [5] is listed as 0.1%.
As for `O=c1c(O)c(-c2ccc(O[C@@H]3O[C@H](CO)[C@@H](O)[C@H](O)[C@H]3O)c(O)c2)oc2cc(O[C@@H]3O[C@H](CO)[C@@H](O)[C@H](O)[C@H]3O)cc(O)c12` [Quercetin 7,4′-diglucoside], the “Papp (apical-to-basolateral)” value with Caco-2 cell monolayer [2] is 5.9 ×10⁻⁶ cm/s.
